Assay results from the supplement of paper PMC10307832.

Experiments:
Test in all cases: relative viability (nuclei count vs DMSO), 5 days (fraction); higher = more cells survive
Tosedostat + OSI-027 = compound: CC(C)C[C@@H](C(=O)N[C@H](C(=O)OC1CCCC1)c1ccccc1)[C@H](O)C(=O)NO [Tosedostat] + COc1cccc2cc(-c3nc([C@H]4CC[C@H](C(=O)O)CC4)n4ncnc(N)c34)[nH]c12 [OSI-027] (partner 0.5 µM)
In short: (§1)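 Relative viability was taken as the ratio of nuclei in treated wells to nuclei in vehicle wells. Lung cancer cell lines in 1536-well plates received compounds by pin tool one day after seeding, either one drug alone or a fixed anchor-drug dose plus five library-drug doses (not always all listed) in √10 steps. Nuclei were counted on 4× images after 5 days of treatment, and values are medians of duplicate plates.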

Tosedostat + Phenformin = compound: CC(C)C[C@@H](C(=O)N[C@H](C(=O)OC1CCCC1)c1ccccc1)[C@H](O)C(=O)NO [Tosedostat] + N=C(N)NC(=N)NCCc1ccccc1 [Phenformin] (partner 250 µM)
In short: as §1

Tosedostat + Olaparib = compound: CC(C)C[C@@H](C(=O)N[C@H](C(=O)OC1CCCC1)c1ccccc1)[C@H](O)C(=O)NO [Tosedostat] + O=C(c1cc(Cc2n[nH]c(=O)c3ccccc23)ccc1F)N1CCN(C(=O)C2CC2)CC1 [Olaparib] (partner 8 µM)
In short: as §1

[1] = compound: CC1=NN=C(O1)C2=NN=C(C=C2)N3CCC(CC3)OC4=C(C=CC(=C4)F)Cl + CCNC(=O)c1noc(-c2cc(C(C)C)c(O)cc2O)c1-c1ccc(CN2CCOCC2)cc1 [Luminespib] (partner 0.01 µM)
In short: as §1

UMC-11
relative viability (Tosedostat + OSI-027; first compound 0.02 µM): 0.473
relative viability (Tosedostat + OSI-027; first compound 0.06325 µM): 0.464
relative viability (Tosedostat + OSI-027; first compound 0.2 µM): 0.397
relative viability (Tosedostat + OSI-027; first compound 0.6325 µM): 0.449
relative viability (Tosedostat + OSI-027; first compound 2 µM): 0.473
relative viability (Tosedostat + Phenformin; first compound 0.02 µM): 0.353
relative viability (Tosedostat + Phenformin; first compound 0.06325 µM): 0.328
relative viability (Tosedostat + Phenformin; first compound 0.2 µM): 0.298
relative viability (Tosedostat + Phenformin; first compound 0.6325 µM): 0.282
relative viability (Tosedostat + Phenformin; first compound 2 µM): 0.278
relative viability (Tosedostat + Olaparib; first compound 0.02 µM): 0.374
relative viability (Tosedostat + Olaparib; first compound 0.06325 µM): 0.336
relative viability (Tosedostat + Olaparib; first compound 0.2 µM): 0.287
relative viability (Tosedostat + Olaparib; first compound 0.6325 µM): 0.273
relative viability (Tosedostat + Olaparib; first compound 2 µM): 0.327
relative viability ([1]; first compound 0.253 µM): 0.523
relative viability ([1]; first compound 0.8 µM): 0.572
relative viability ([1]; first compound 2.53 µM): 0.453
relative viability ([1]; first compound 8 µM): 0.552
